Test results as given in patent US6413937B1, “Combinations for use in increasing the potency of a substrate for multidrug resistance related protein” (Dublin City University and Enterprise Ireland, priority 1996, dated 2002).

Assays:
DLKP cell line = assay: miniaturised in vitro colorimetric cell survival assay (acid phosphatase end-point), DLKP; assay type: cell-based, human
Procedure: All the results presented in this Example for the DLKP, A549 and OAW42-SR cell lines were derived using the same miniaturised in vitro calorimetric assay system. On Day 1 of the assay 1000 cells/well/100 μl were plated into 96-well plates. Cells were allowed to attach overnight and cell viability was visually assessed. […] NSAID plus chemotherapeutic drug) to be analysed were added onto the cells. The individual drugs were added separately in 50 μl quantities (4× stocks, to take into account the dilution effect of having 200 μl final volume in each well). The drugs were left on the cells for five further days (Day 7) and cell number was determined using the acid phosphatase end-point assay which uses p-nitrophenol phosphate as substrate (Martin, A. and Clynes, M. (1991) In Vitro Dev. Biol., 27A, 183-184). On Day 7 the culture medium was removed from the cells and they were washed once with phosphate buffered saline (PBS). […] After the incubation period 50 μl of 1N NaOH was added to each well to develop the colour. The plates were then read at 405 nm (reference 620 nm) on an ELISA plate-reader. […] All results are the cell survival means ±S.D. from a minimum of three experiments.

HL-60ADR cells = assay: etoposide-induced apoptosis (nuclear fragmentation), HL-60ADR; assay type: cell-based; conditions: HL-60ADR (resistant); etoposide alone or co-treated with sulindac; FIG. 1
Procedure: An experiment was carried out to determine the effect of the NSAID sulindac on etoposide-induced apoptosis in two cell lines, namely HL-60S and HL-60ADR. These cell lines were donated by Dr. Melvin Center, Kansas State University, Manhattan Kans. 66506, U.S.A. For the HL-60S and ADR cell lines the percentage of apoptotic cells within the cell population, following drug exposure, was used to quantify toxicity. Cells were plated in fresh medium at a concentration of 10^6 cells/ml in a 24-well plate (Greiner) and drugs were then added to the wells. A 200 μl sample from each well was taken after 4 and 8 hrs. Samples were cytospun for 2 min at 500 rpm using a Shandon Cytofuge3. After air-drying the cytospins were stained using a Romanowsky staining kit, Rappi-Diff II (Langanbach), dried and mounted in DPX (BDH). Slides were studied on an Optiphot microscope (Nikon) fitted with a 40× objective, and visualised on a monitor via a Mitsubishi CCD-100E colour CCD-camera and a 0.6× relay lens. Nuclear fragmentation was used as a morphological marker for apoptosis and a minimum of 200 cells were assessed in at least three different microscopic fields. Results were expressed as the percentage of apoptotic cells within the population. Each experiment was repeated in duplicate.

DLKP-A cell line = assay: miniaturised in vitro colorimetric cell survival assay, P-170 overexpressing DLKP-A; assay type: cell-based, human
Procedure: All the results presented in this Example for the DLKP, A549 and OAW42-SR cell lines were derived using the same miniaturised in vitro calorimetric assay system. On Day 1 of the assay 1000 cells/well/100 μl were plated into 96-well plates. Cells were allowed to attach overnight and cell viability was visually assessed. On Day 2 the two drugs (i.e. NSAID plus chemotherapeutic drug) to be analysed were added onto the cells. The individual drugs were added separately in 50 μl quantities (4× stocks, to take into account the dilution effect of having 200 μl final volume in each well). The drugs were left on the cells for five further days (Day 7) and cell number was determined using the acid phosphatase end-point assay which uses p-nitrophenol phosphate as substrate (Martin, A. and Clynes, M. (1991) In Vitro Dev. Biol., 27A, 183-184). On Day 7 the culture medium was removed from the cells and they were washed once with phosphate buffered saline (PBS). After washing, 100 μl of freshly prepared substrate-containing buffer (0.1% Triton X-100 in 0.1M sodium acetate, pH 5.5) was added to each well and the plates were left in an incubator at 37° C. for 2 h. After the incubation period 50 μl of 1N NaOH was added to each well to develop the colour. The plates were then read at 405 nm (reference 620 nm) on an ELISA plate-reader.
In the results given below the % cell survival in the drug-free control is 100%. All results are the cell survival means ±S.D. from a minimum of three experiments.
v) is an example of a positive NSAID plus a positive drug on a P-170 overexpressing cell line: DLKP-A;

## CC1=C(CC(=O)O)c2cc(F)ccc2/C1=C\c1ccc([S+](C)[O-])cc1 (stereo not shown) [Sulindac, sulindac]
DLKP cell line; ii) Sulindac 1.5 μg/ml, alone or + Vincristine 1.0 ng/ml
  % cell survival: 111.6 ± 9.7%
DLKP cell line; ii) Sulindac 3 μg/ml, alone or + Vincristine 1.0 ng/ml
  % cell survival: 108.45 ± 10.6%
DLKP cell line; ii) Sulindac 6 μg/ml, alone or + Vincristine 1.0 ng/ml
  % cell survival: 114.1 ± 3.9%
DLKP cell line; iii) Sulindac 1.5 μg/ml, alone or + VP-16 100 ng/ml
  % cell survival: 95.07 ± 1.6%
DLKP cell line; iii) Sulindac 3 μg/ml, alone or + VP-16 100 ng/ml
  % cell survival: 93.68 ± 2.0%
DLKP cell line; iii) Sulindac 6 μg/ml, alone or + VP-16 100 ng/ml
  % cell survival: 90.75 ± 3.3%
DLKP cell line; iv) Sulindac 1.5 μg/ml, alone or + 5-FU 0.5 μg/ml
  % cell survival: 99.70 ± 7.7%
DLKP cell line; iv) Sulindac 3 μg/ml, alone or + 5-FU 0.5 μg/ml
  % cell survival: 98.79 ± 8.8%
DLKP cell line; iv) Sulindac 6 μg/ml, alone or + 5-FU 0.5 μg/ml
  % cell survival: 93.61 ± 5.9%
DLKP cell line; vii) Sulindac 1.5 μg/ml, alone or + PAT 1.5 μg/ml
  % cell survival: 96.51 ± 5.3%
DLKP cell line; vii) Sulindac 3.0 μg/ml, alone or + PAT 1.5 μg/ml
  % cell survival: 99.99 ± 2.9%
DLKP cell line; vii) Sulindac 6.0 μg/ml, alone or + PAT 1.5 μg/ml
  % cell survival: 94.23 ± 1.2%
HL-60ADR cells
  etoposide-induced apoptosis, percentage of apoptotic cells: a significant increase in the amount of cells dying by apoptosis is observed
DLKP-A cell line; v) Sulindac 1.5 μg/ml, alone or + Vincristine 1.0 μg/ml
  % cell survival: 108.9 ± 8.0%
DLKP-A cell line; v) Sulindac 3 μg/ml, alone or + Vincristine 1.0 μg/ml
  % cell survival: 86.30 ± 13.7%
DLKP-A cell line; v) Sulindac alone (concentration not given) or Sulindac 6 μg/ml + Vincristine 1.0 μg/ml
  % cell survival: 105.7 ± 5.2%
